Laboratory results from DBAASP.
≈ marks a conversion by molar mass, not a printed value. One block for each compound: values may come before it.

Columns and labels:
Test in all cases: ≥ marks a high value that may be exact or a test limit, other limits are often not marked, values filed in µg/mL are converted to µM
[1] = system: Escherichia coli ATCC 25922
[2] = system: Staphylococcus aureus ATCC 25923
Micrococcus luteus = system: Micrococcus luteus
[3] = system: Pseudomonas aeruginosa ATCC 15692
Saccharomyces cerevisiae = system: Saccharomyces cerevisiae
Staphylococcus aureus = system: Staphylococcus aureus
Escherichia coli = system: Escherichia coli
Bacillus cereus = system: Bacillus cereus
[4] = system: Candida albicans ATCC 90028
[5] = system: Acinetobacter baumannii NM8
[6] = system: Acinetobacter baumannii NM35
[7] = system: Escherichia coli ATCC 25726
Candida albicans = system: Candida albicans
Escherichia coli JM109 = system: Escherichia coli JM109
Bacillus subtilis = system: Bacillus subtilis
Klebsiella pneumoniae = system: Klebsiella pneumoniae

MIC [1]: 32 µM (≈ 53.8 µg/mL)
MIC [2]: 16 µM (≈ 26.9 µg/mL)
MIC (Micrococcus luteus): 4 µM (≈ 6.72 µg/mL)
MIC [3]: ≥ 256 µM
MIC (Saccharomyces cerevisiae): ≥ 128 µM
SMILES: CC[C@H](C)[C@H](NC(=O)[C@@H](N)Cc1ccccc1)C(=O)NCC(=O)N[C@@H](C)C(=O)N[C@@H](CC(C)C)C(=O)N[C@@H](CC(C)C)C(=O)N[C@@H](CCCN=C(N)N)C(=O)N1CCC[C@H]1C(=O)N[C@@H](C)C(=O)N[C@@H](CC(C)C)C(=O)N[C@@H](CCCCN)C(=O)N[C@@H](CC(C)C)C(=O)N[C@@H](CC(C)C)C(=O)N[C@@H](C)C(=O)NCC(=O)N[C@@H](CCCCN)C(N)=O [FIGALLRPALKLLAGK]

MIC (Staphylococcus aureus): > 57.5 µM
MIC (Escherichia coli): 14.4 µM (≈ 32 µg/mL)
MIC (Bacillus cereus): ≥ 57.5 µM
SMILES: CC(C)C[C@H](NC(=O)[C@@H](N)Cc1ccccc1)C(=O)NCC(=O)N[C@@H](CCCCN)C(=O)N[C@H](C(=O)N[C@@H](Cc1ccccc1)C(=O)N[C@@H](CCCCN)C(=O)N[C@@H](CCCCN)C(=O)N[C@H](C(=O)N[C@@H](CO)C(=O)N[C@@H](CCCCN)C(=O)N[C@H](C(=O)N[C@@H](Cc1ccccc1)C(=O)N1CCC[C@H]1C(=O)N[C@@H](C)C(=O)N[C@H](C(=O)N[C@@H](Cc1ccccc1)C(=O)NCC(=O)N[C@@H](CCCCN)C(=O)N[C@H](C(=O)O)C(C)C)C(C)C)C(C)C)C(C)C)C(C)C [FLGKVFKKVSKVFPAVFGKV]

MIC [4]: 10 µM (≈ 23.2 µg/mL)
MIC [2]: 250 µM (≈ 580 µg/mL)
MIC [5]: 5 µM (≈ 11.6 µg/mL)
MIC [6]: 2.5 µM (≈ 5.8 µg/mL)
MIC [7]: 10 µM (≈ 23.2 µg/mL)
SMILES: CC[C@H](C)[C@H](NC(=O)CNC(=O)[C@H](CCCCN)NC(=O)[C@@H](NC(=O)[C@H](CC(C)C)NC(=O)[C@H](CO)NC(=O)CNC(=O)[C@H](CC(C)C)NC(=O)CNC(=O)[C@H](CCCCN)NC(=O)[C@H](CCCCN)NC(=O)[C@H](Cc1ccccc1)NC(=O)[C@@H](NC(=O)[C@H](CCCCN)NC(=O)[C@H](CCCCN)NC(=O)[C@H](CC(C)C)NC(=O)CN)[C@@H](C)CC)C(C)C)C(=O)N[C@@H](C)C(=O)N[C@@H](C)C(=O)N[C@@H](Cc1cnc[nH]1)C(=O)N[C@H](C(=O)N[C@@H](C)C(=O)N[C@@H](CO)C(N)=O)C(C)C [GLKKIFKKGLGSLVKGIAAHVAS]

MIC (Escherichia coli): > 122 µM
MIC (Bacillus cereus): ≥ 122 µM
SMILES: CC[C@H](C)[C@H](NC(=O)[C@H](Cc1ccccc1)NC(=O)[C@H](CCCN=C(N)N)NC(=O)[C@H](CO)NC(=O)[C@@H](NC(=O)[C@H](C)NC(=O)[C@H](C)NC(=O)[C@H](CCCCN)NC(=O)[C@@H](NC(=O)[C@H](CS)NC(=O)[C@@H](NC(=O)[C@@H]1CCCN1C(=O)[C@H](CO)NC(=O)[C@H](Cc1ccc(O)cc1)NC(=O)[C@@H](N)CC(C)C)[C@@H](C)O)C(C)C)C(C)C)C(=O)NCC(=O)N[C@@H](CCCCN)C(=O)N[C@H](C(=O)N[C@@H](CO)C(=O)N[C@@H](C)C(=O)O)C(C)C [LYSPTCVKAAVSRFIGKVSA]

MIC (Candida albicans): 50 µM (≈ 160 µg/mL)
MIC (Escherichia coli JM109): 28.3 µM (≈ 90.7 µg/mL)
MIC (Bacillus subtilis): 10 µM (≈ 32.1 µg/mL)
MIC (Klebsiella pneumoniae): 80 µM (≈ 256 µg/mL)
MIC (Saccharomyces cerevisiae): 28.3 µM (≈ 90.7 µg/mL)
SMILES: CC[C@H](C)[C@H](NC(=O)[C@H](CCCCN)NC(=O)[C@H](CCCCN)NC(=O)[C@H](Cc1ccccc1)NC(=O)[C@@H](NC(=O)[C@H](CCCCN)NC(=O)[C@H](Cc1c[nH]c2ccccc12)NC(=O)[C@@H](N)CCCN=C(N)N)[C@@H](C)CC)C(=O)N[C@@H](CCC(=O)O)C(=O)N[C@@H](CCCCN)C(=O)N[C@@H](CCSC)C(=O)NCC(=O)NCC(=O)N[C@@H](CO)C(=O)N[C@@H](Cc1ccc(O)cc1)C(=O)N[C@@H](CS)C(=O)N[C@@H](CC(N)=O)C(=O)N[C@@H](CCCN=C(N)N)C(=O)N[C@@H](CCCN=C(N)N)C(=O)N[C@H](C(=O)NCC(=O)N[C@@H](CCCCN)C(=O)N[C@@H](CS)C(=O)N[C@@H](CCC(N)=O)C(=O)N[C@@H](CCCN=C(N)N)C(=O)N[C@@H](CCSC)C(=O)O)[C@@H](C)O [RWKIFKKIEKMGGSYCNRRTGKCQRM]
